{"source": "ChEMBL document CHEMBL5113408", "about": "“Design, synthesis and antitumour activity of novel 5(6)-amino-benzimidazolequinones containing a fused morpholine” (Eur J Med Chem, 2022)", "key": {"[1]": {"test_system": "MGC-803", "experiment": "Antiproliferative activity against human MGC-803 cells assessed as inhibition of cell growth incubated for 72 hrs by SRB assay", "format": "functional, cell-based", "settings": "MGC-803, 72 h"}, "[2]": {"test_system": "MGC-803", "experiment": "Antiproliferative activity against human MGC-803 cells assessed as inhibition of cell growth at 0.25 to 8 uM by SRB assay", "format": "functional, cell-based", "settings": "dose 0.25-8 µM, time 24-72 hrs, TDE = time-dependent effect"}, "[3]": {"test_system": "HGC-27", "experiment": "Antiproliferative activity against human HGC-27 cells assessed as inhibition of cell growth incubated for 24 to 72 hrs by SRB assay", "format": "functional, cell-based", "settings": "dose 0.25-8 µM, time 24-72 hrs, DDE = dose-dependent effect"}, "[4]": {"test_system": "MGC-803", "experiment": "Inhibition of colony formation in human MGC-803 cells incubated for 24 hrs with fresh medium replacement for every two days measured for 11 days by crystal voilet staining based assay", "format": "functional, cell-based", "settings": "dose 0.5-2 µM, time 11.0 day, DDE = dose-dependent effect"}, "[5]": {"test_system": "HGC-27", "experiment": "Induction of apoptosis in human HGC-27 cells assessed as increase in bax/bcl-2 expression level at 1 to 4 uM incubated for 48 hrs by Western blot analysis", "format": "functional, cell-based", "settings": "dose 1-4 µM"}, "[6]": {"test_system": "MGC-803", "experiment": "Induction of apoptosis in human MGC-803 cells assessed as decrease in caspase 3 protein expression level at 1 to 4 uM incubated for 48 hrs by Western blot analysis", "format": "functional, cell-based", "settings": "dose 1-4 µM"}, "[7]": {"test_system": "HGC-27", "experiment": "Induction of apoptosis in human HGC-27 cells assessed as decrease in caspase 3 protein expression level at 1 to 4 uM incubated for 48 hrs by Western blot analysis", "format": "functional, cell-based", "settings": "dose 1-4 µM"}, "[8]": {"test_system": "MGC-803", "experiment": "Induction of apoptosis in human MGC-803 cells assessed as decrease in caspase 7 protein expression level at 1 to 4 uM incubated for 48 hrs by Western blot analysis", "format": "functional, cell-based", "settings": "dose 1-4 µM"}, "[9]": {"test_system": "HGC-27", "experiment": "Induction of apoptosis in human HGC-27 cells assessed as decrease in caspase 7 protein expression level at 1 to 4 uM incubated for 48 hrs by Western blot analysis", "format": "functional, cell-based", "settings": "dose 1-4 µM"}, "[10]": {"test_system": "HGC-27", "experiment": "Induction of apoptosis in human HGC-27 cells assessed as increase in cleaved caspase 9 protein expression level at 1 to 4 uM incubated for 48 hrs by Western blot analysis", "format": "functional, cell-based", "settings": "dose 1-4 µM"}, "[11]": {"test_system": "MGC-803", "experiment": "Induction of cell cycle arrest in human MGC-803 cells assessed as accumulation of cells at G1 phase at 1 uM incubated for 36 hrs by PI staining based flow cytometry analysis (reference value: 45.8%)", "format": "functional"}, "[12]": {"test_system": "MGC-803", "experiment": "Induction of cell cycle arrest in human MGC-803 cells assessed as accumulation of cells at S phase at 1 uM incubated for 36 hrs by PI staining based flow cytometry analysis (reference value: 20.5%)", "format": "functional"}, "[13]": {"test_system": "MGC-803", "experiment": "Induction of cell cycle arrest in human MGC-803 cells assessed as accumulation of cells at G1 phase at 2 uM incubated for 36 hrs by PI staining based flow cytometry analysis (reference value: 45.8%)", "format": "functional"}, "[14]": {"test_system": "MGC-803", "experiment": "Induction of cell cycle arrest in human MGC-803 cells assessed as accumulation of cells at G1 phase at 4 uM incubated for 36 hrs by PI staining based flow cytometry analysis (reference value: 45.8%)", "format": "functional"}, "[15]": {"test_system": "HGC-27", "experiment": "Induction of cell cycle arrest in human HGC-27 cells assessed as accumulation of cells at S phase at 2 uM incubated for 36 hrs by PI staining based flow cytometry analysis (reference value: 8.87%)", "format": "functional"}, "[16]": {"test_system": "HGC-27", "experiment": "Induction of cell cycle arrest in human HGC-27 cells assessed as accumulation of cells at G1 phase at 4 uM incubated for 36 hrs by PI staining based flow cytometry analysis (reference value: 49.6%)", "format": "functional"}, "[17]": {"test_system": "HGC-27", "experiment": "Induction of cell cycle arrest in human HGC-27 cells assessed as accumulation of cells at G2/M phase at 4 uM incubated for 36 hrs by PI staining based flow cytometry analysis (reference value: 26.2%)", "format": "functional"}, "[18]": {"test_system": "MGC-803", "experiment": "Induction of cell cycle arrest in human MGC-803 cells assessed as decrease in p-cdc25c level at 1 to 4 uM by Western blot analysis", "format": "functional, cell-based", "settings": "dose 1-4 µM"}, "[19]": {"test_system": "MGC-803", "experiment": "Induction of cell cycle arrest in human MGC-803 cells assessed as decrease in p-cdc2 level at 1 to 4 uM by Western blot analysis", "format": "functional, cell-based", "settings": "dose 1-4 µM"}, "[20]": {"test_system": "HGC-27", "experiment": "Induction of cell cycle arrest in human HGC-27 cells assessed as decrease in p-cdc2 level at 1 to 4 uM by Western blot analysis", "format": "functional, cell-based", "settings": "dose 1-4 µM"}, "[21]": {"test_system": "HGC-27", "experiment": "Induction of ROS generation in human HGC-27 cells at 1 to 4 uM incubated for 24 hrs by flow cytometry analysis", "format": "functional, cell-based", "settings": "dose 1-4 µM"}, "[22]": {"test_system": "MGC-803", "experiment": "Activation of ROS/JNK signalling in human MGC-803 cells assessed as increase in p-ASK1 level by Western blot analysis", "format": "cell-based", "settings": "filed as activator, dose 1-4 µM, DDE = dose-dependent effect"}, "[23]": {"test_system": "MGC-803", "experiment": "Activation of ROS/JNK signalling in human MGC-803 cells assessed as increase in p-JNK level at 1 to 4 uM by Western blot analysis", "format": "cell-based", "settings": "filed as activator, dose 1-4 µM"}, "[24]": {"test_system": "HGC-27", "experiment": "Activation of ROS/JNK signalling in human HGC-27 cells assessed as increase in p-JNK level at 1 to 4 uM by Western blot analysis", "format": "cell-based", "settings": "filed as activator, dose 1-4 µM"}, "[25]": {"test_system": "MGC-803", "experiment": "Induction of apoptosis in human MGC-803 cells incubated for 48 hrs in presence of NAC by Annexin V-FITC and PI staining based flow cytometry analysis", "format": "functional"}, "[26]": {"test_system": "HGC-27", "experiment": "Induction of apoptosis in human HGC-27 cells incubated for 48 hrs in presence of NAC by Annexin V-FITC and PI staining based flow cytometry analysis", "format": "functional"}, "[27]": {"test_system": "MGC-803", "experiment": "Induction of DNA damage in human MGC-803 cells assessed as appearance of longer comet tail at 4 uM", "format": "functional, cell-based"}, "[28]": {"test_system": "HGC-27", "experiment": "Induction of DNA damage in human HGC-27 cells assessed as appearance of longer comet tail at 4 uM", "format": "functional, cell-based"}, "[29]": {"test_system": "MGC-803", "experiment": "Induction of DNA damage in human MGC-803 cells assessed as increase in gamma-H2AX generation incubated for 48 hrs by Western blot analysis", "format": "functional, cell-based", "settings": "DDE = dose-dependent effect"}, "[30]": {"test_system": "MGC-803", "experiment": "Antitumor activity against human MGC-803 cells xenografted with BALB/c mouse assessed as wrinkled nuclei at 10 to 20 mg/kg, ip administered once every two days", "format": "functional, organism-based", "settings": "dose 10-20 mg/kg"}, "[31]": {"test_system": "MGC-803", "experiment": "Antitumor activity against human MGC-803 cells xenografted with BALB/c mouse assessed as atrophied cells at 10 to 20 mg/kg, ip administered once every two days", "format": "functional, organism-based", "settings": "dose 10-20 mg/kg"}, "[32]": {"experiment": "Toxicity in BALB/c mouse xenografted with human MGC-803 cells assessed as effect on body weight at 10 to 20 mg/kg, ip administered once every two days", "format": "organism-based", "settings": "in vivo, dose 10-20 mg/kg"}, "[33]": {"experiment": "Toxicity in BALB/c mouse xenografted with human MGC-803 cells assessed as effect on heart at 10 to 20 mg/kg, ip administered once every two days measured after 15 days by H and E staining based assay", "format": "organism-based", "settings": "in vivo, 360 h, dose 10-20 mg/kg, time 15 day"}, "[34]": {"experiment": "Toxicity in BALB/c mouse xenografted with human MGC-803 cells assessed as effect on liver at 10 to 20 mg/kg, ip administered once every two days measured after 15 days by H and E staining based assay", "format": "organism-based", "settings": "in vivo, 360 h, dose 10-20 mg/kg, time 15 day"}, "[35]": {"experiment": "Toxicity in BALB/c mouse xenografted with human MGC-803 cells assessed as effect on lung at 10 to 20 mg/kg, ip administered once every two days measured after 15 days by H and E staining based assay", "format": "organism-based", "settings": "in vivo, 360 h, dose 10-20 mg/kg, time 15 day"}}, "note": "The source made the active and inactive calls. No cut-off for these calls is given here.", "data": [{"smiles": "Cc1ccc(NC2=CC(=O)c3nc4n(c3C2=O)[C@H]2OC[C@@H](O)[C@H]2OC4)cc1C", "values": [{"measurement": "IC50", "setting": "[1]", "result": 860, "unit": "nM"}, {"measurement": "Activity", "setting": "[2]", "result": "Tde"}, {"measurement": "Activity", "setting": "[3]", "result": "Dde"}, {"measurement": "inhibition", "setting": "[4]", "result": "Dde"}, {"measurement": "Activity", "setting": "[5]", "result": "Active"}, {"measurement": "Activity", "setting": "[6]", "result": "Active"}, {"measurement": "Activity", "setting": "[7]", "result": "Active"}, {"measurement": "Activity", "setting": "[8]", "result": "Active"}, {"measurement": "Activity", "setting": "[9]", "result": "Active"}, {"measurement": "Activity", "setting": "[10]", "result": "Active"}, {"measurement": "Activity", "setting": "[11]", "result": 33.6, "unit": "%"}, {"measurement": "Activity", "setting": "[12]", "result": 35.4, "unit": "%"}, {"measurement": "Activity", "setting": "[13]", "result": 29.2, "unit": "%"}, {"measurement": "Activity", "setting": "[14]", "result": 30.8, "unit": "%"}, {"measurement": "Activity", "setting": "[15]", "result": 10.7, "unit": "%"}, {"measurement": "Activity", "setting": "[16]", "result": 28, "unit": "%"}, {"measurement": "Activity", "setting": "[17]", "result": 33.3, "unit": "%"}, {"measurement": "Activity", "setting": "[18]", "result": "Active"}, {"measurement": "Activity", "setting": "[19]", "result": "Active"}, {"measurement": "Activity", "setting": "[20]", "result": "Active"}, {"measurement": "Activity", "setting": "[21]", "result": "Active"}, {"measurement": "Activity", "setting": "[22]", "result": "Dde"}, {"measurement": "Activity", "setting": "[23]", "result": "Active"}, {"measurement": "Activity", "setting": "[24]", "result": "Active"}, {"measurement": "Activity", "setting": "[25]", "result": 9.29, "unit": "%"}, {"measurement": "Activity", "setting": "[26]", "result": 1.4, "unit": "%"}, {"measurement": "Activity", "setting": "[27]", "result": "Active"}, {"measurement": "Activity", "setting": "[28]", "result": "Active"}, {"measurement": "Activity", "setting": "[29]", "result": "Dde"}, {"measurement": "Activity", "setting": "[30]", "result": "Active"}, {"measurement": "Activity", "setting": "[31]", "result": "Active"}, {"measurement": "Activity", "setting": "[32]", "result": "Non-Toxic"}, {"measurement": "Activity", "setting": "[33]", "result": "Non-Toxic"}, {"measurement": "Activity", "setting": "[34]", "result": "Non-Toxic"}, {"measurement": "Activity", "setting": "[35]", "result": "Non-Toxic"}]}]}
